From patent US20250313572A1, “MACROCYCLIC MCL-1 INHIBITORS AND METHODS OF USE” (AbbVie Inc., priority 2017, published 2025)
Where two headings read alike, the source gives them in different places.

Legend:
[1] = system: NCI-H929 human multiple myeloma tumor cell line; experiment: NCI-H929 cell viability assay (CellTiter-Glo, 24 hours); format: cell-based; details: Homo sapiens, NCI-H929, 24 h, read-out: H929 Viability IC50 (μM, 10% FBS), 10% FBS, 24 hours of compound treatment
GST-MCL-1 = GST-MCL-1 (Homo sapiens, UniProt Q07820); experiment: TR-FRET MCL-1 binding assay (competition with probe F-Bak)
Procedure: Tb-anti-GST antibody was purchased from Invitrogen (Catalog No. PV4216).
For the assay, an acoustic dispenser was used to prepare dilution series from 10 mM test compounds in 100% DMSO and directly transfer 160 nL into low volume 384-well assay plates. 8 μL of a protein/probe/antibody mix was then added to each well resulting in final concentrations listed below: • Test compound: 11 three-fold dilutions beginning at 25 μM
The samples were then mixed on a shaker for 1 minute and incubated for an additional 2 hours at room temperature. For each assay plate, a probe/antibody and protein/antibody/probe mixture were included as a negative and a positive control, respectively. Fluorescence was measured on the Envision (Perkin Elmer) using a 340/35 nm excitation filter and 520/525 (F-Bak) and 495/510 nm (Tb-labeled anti-his antibody) emission filters. […] The TR-FRET assay can be performed in the presence of varying concentrations of human serum (HS) or fetal bovine serum (FBS). Compounds were tested both without HS and in the presence of 10% HS.

[2] = system: AMO-1 human multiple myeloma tumor cell line; experiment: AMO-1 cell viability assay (CellTiter-Glo, 24 hours); format: cell-based; details: Homo sapiens, AMO1, 24 h, read-out: AMO-1 Viability IC50 (μM, 10% FBS), 10% FBS, 24 hours of compound treatment
[3] = MCL-1 Binding Ki (nM, 10% HS), in the presence of 10% HS (human serum)
[4] = without HS, read-out: MCL-1 Binding Ki

GST-MCL-1, sequence (Q07820 whole entry): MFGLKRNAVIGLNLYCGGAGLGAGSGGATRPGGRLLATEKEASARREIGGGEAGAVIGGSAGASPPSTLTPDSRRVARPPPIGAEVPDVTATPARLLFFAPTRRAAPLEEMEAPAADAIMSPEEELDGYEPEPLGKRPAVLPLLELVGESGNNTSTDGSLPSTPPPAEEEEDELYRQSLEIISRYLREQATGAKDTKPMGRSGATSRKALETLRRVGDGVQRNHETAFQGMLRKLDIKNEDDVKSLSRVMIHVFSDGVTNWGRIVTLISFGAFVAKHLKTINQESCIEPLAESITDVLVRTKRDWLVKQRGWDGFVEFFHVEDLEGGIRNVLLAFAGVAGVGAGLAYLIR

In the case of `Cc1c2ccc(c1Cl)O[C@H](CN1CCN(C)CC1)COc1ccc(OCc3ccnc(-c4cccc(=O)n4C)n3)c(c1)C[C@H](C(=O)O)Oc1ncnc3sc(-c4ccc(F)cc4)c-2c13` [Example 28, (7R,16R)-19-chloro-1-(4-fluorophenyl)-20-methyl-10-{[2-(1-methyl-6-oxo-1,6-dihydropyridin-2-yl)pyrimidin-4-yl]methoxy}-16-[(4-methylpiperazin-1-yl)methyl]-7,8,15,16-tetrahydro-18,21-etheno-13,9-(metheno)-6,14,17-trioxa-2-thia-3,5-diazacyclononadeca[1,2,3-cd]indene-7-carboxylic Acid], the IC50 [1] is reported as 0.00583 µM, the Ki (GST-MCL-1; [3]) is reported as 0.027 nM and the Ki (GST-MCL-1; [4]) is reported as 0.021 nM. The IC50 [2] was 0.00269 µM.
With `COCCOCCOC[C@]1(F)CC[C@@H](c2nccc(COc3ccc4cc3C[C@H](C(=O)O)Oc3ncnc5sc(-c6ccc(F)cc6)c(c35)-c3c(C)c(Cl)c(c(Cl)c3C)O[C@H](CN3CCN(C)CC3)CO4)n2)CC1` [Example 96, (7R,16R)-19,23-dichloro-10-({2-[(1s,4s)-4-fluoro-4-{[2-(2-methoxyethoxy)ethoxy]methyl}cyclohexyl]pyrimidin-4-yl}methoxy)-1-(4-fluorophenyl)-20,22-dimethyl-16-[(4-methylpiperazin-1-yl)methyl]-7,8,15,16-tetrahydro-18,21-etheno-13,9-(metheno)-6,14,17-trioxa-2-thia-3,5-diazacyclononadeca[1,2,3-cd]indene-7-carboxylic Acid] the IC50 [1] was 0.000259 µM, the Ki (GST-MCL-1; [3]) was 0.037 nM and the Ki (GST-MCL-1; [4]) was 0.003 nM. It also gave an IC50 [2] of 0.000287 µM.
`Cc1c(Cl)c2c(Cl)c(C)c1-c1c(-c3ccc(F)cc3)sc3ncnc(c13)O[C@@H](C(=O)O)Cc1cc(ccc1OCc1ccnc(N3CCS(=O)(=O)CC3)n1)OC[C@@H](CN1CCN(C)CC1)O2` [Example 75, (7R,16R)-19,23-dichloro-10-{[2-(1,1-dioxo-1λ^6-thiomorpholin-4-yl)pyrimidin-4-yl]methoxy}-1-(4-fluorophenyl)-20,22-dimethyl-16-[(4-methylpiperazin-1-yl)methyl]-7,8,15,16-tetrahydro-18,21-etheno-9,13-(metheno)-6,14,17-trioxa-2-thia-3,5-diazacyclononadeca[1,2,3-cd]indene-7-carboxylic Acid] showed an IC50 [1] of 0.00914 µM, a Ki (GST-MCL-1; [3]) of 2.67 nM and a Ki (GST-MCL-1; [4]) of 0.375 nM. The IC50 [2] was 0.00386 µM.
For `Cc1c(Cl)c2c(Cl)c(C)c1-c1c(-c3ccc(F)cc3)sc3ncnc(c13)O[C@@H](C(=O)O)Cc1cc(ccc1OCc1ccnc(N3CCP(C)(=O)CC3)n1)OC[C@@H](CN1CCN(C)CC1)O2` [Example 25, (7R,16R)-19,23-dichloro-1-(4-fluorophenyl)-20,22-dimethyl-10-{[2-(4-methyl-4-oxo-1,4λ^5-azaphosphinan-1-yl)pyrimidin-4-yl]methoxy}-16-[(4-methylpiperazin-1-yl)methyl]-7,8,15,16-tetrahydro-18,21-etheno-13,9-(metheno)-6,14,17-trioxa-2-thia-3,5-diazacyclononadeca[1,2,3-cd]indene-7-carboxylic Acid], the IC50 [1] was 0.0808 µM, the Ki (GST-MCL-1; [3]) was 5.7 nM and the Ki (GST-MCL-1; [4]) was 0.844 nM. For the same compound, the IC50 [2] was 0.0727 µM.
For `CO[C@H]1O[C@H](COc2cccc(-c3nccc(COc4ccc5cc4C[C@H](C(=O)O)Oc4ncnc6sc(-c7ccc(F)cc7)c(c46)-c4ccc(c(Cl)c4C)O[C@H](CN4CCN(C)CC4)CO5)n3)c2)[C@@H](OC)[C@H](OC)[C@@H]1OC` [Example 7, methyl 6-O-{3-[4-({[(7R,16R,21S)-7-carboxy-19-chloro-1-(4-fluorophenyl)-20-methyl-16-[(4-methylpiperazin-1-yl)methyl]-7,8,15,16-tetrahydro-18,21-etheno-13,9-(metheno)-6,14,17-trioxa-2-thia-3,5-diazacyclononadeca[1,2,3-cd]inden-10-yl]oxy}methyl)pyrimidin-2-yl]phenyl}-2,3,4-tri-O-methyl-a-D-mannopyranoside], the IC50 [1] was 0.011 µM, the Ki (GST-MCL-1; [3]) was 0.599 nM and the Ki (GST-MCL-1; [4]) was 0.054 nM. It also gave an IC50 [2] of 0.007 µM.
